# Results from the OligoGym collection.
# HELM strings list units from the 5' end as sugar, base in round brackets, then linkage (d deoxyribose, r ribose, m 2'-O-methyl, p phosphodiester). Strings are as the collection lists them; they lack the last nucleoside at the 3' end of the tested compound. [moe] = 2'-O-(2-methoxyethyl) (MOE); [sp] = phosphorothioate linkage; [m5C] = 5-methylcytosine
# Molecular target: UBE3A-ATS
# Experiment: mouse, dose not given
# Settings: ASO
row,Substance,3 h FOB score [score 0-7]
1,RNA1{[moe](G)[sp].[moe](G)p.[moe](A)p.[moe](T)p.[moe](T)p.d(T)[sp].d(T)[sp].d(A)[sp].d(T)[sp].d(T)[sp].d(G)[sp].d(G)[sp].d(T)[sp].d([m5C])[sp].d(A)[sp].[moe](T)p.[moe]([m5C])p.[moe](T)[sp].[moe]([m5C])}$$$$ (last 3' nucleoside missing),5
2,RNA1{[moe](G)[sp].[moe](G)p.[moe](A)p.[moe](T)p.[moe](T)p.d([m5C])[sp].d(A)[sp].d(A)[sp].d(T)[sp].d(A)[sp].d(G)[sp].d(T)[sp].d(G)[sp].d(T)[sp].d(A)[sp].[moe](G)p.[moe](G)p.[moe](T)[sp].[moe](G)}$$$$ (last 3' nucleoside missing),7
3,RNA1{[moe](G)[sp].[moe](G)p.[moe](A)p.[moe]([m5C])p.[moe](A)p.d(G)[sp].d([m5C])[sp].d(T)[sp].d(G)[sp].d(T)[sp].d(G)[sp].d(T)[sp].d(G)[sp].d(G)[sp].d(A)[sp].[moe](G)p.[moe](G)p.[moe](G)[sp].[moe](A)}$$$$ (last 3' nucleoside missing),5.5
4,RNA1{[moe](G)[sp].[moe](G)p.[moe](A)p.[moe]([m5C])p.[moe](A)p.d([m5C])[sp].d(T)[sp].d([m5C])[sp].d(T)[sp].d([m5C])[sp].d(G)[sp].d([m5C])[sp].d(T)[sp].d(G)[sp].d(A)[sp].[moe](G)p.[moe](G)p.[moe](A)[sp].[moe]([m5C])}$$$$ (last 3' nucleoside missing),4.5
5,RNA1{[moe](G)[sp].[moe](G)p.[moe](A)p.[moe]([m5C])p.[moe](T)p.d(T)[sp].d(G)[sp].d(T)[sp].d([m5C])[sp].d(T)[sp].d(T)[sp].d(A)[sp].d(T)[sp].d(G)[sp].d(G)[sp].[moe]([m5C])p.[moe](T)p.[moe](G)[sp].[moe]([m5C])}$$$$ (last 3' nucleoside missing),1
6,RNA1{[moe](G)[sp].[moe](G)p.[moe](G)p.[moe](A)p.[moe](A)p.d(G)[sp].d(T)[sp].d([m5C])[sp].d(T)[sp].d(A)[sp].d(G)[sp].d(G)[sp].d(T)[sp].d([m5C])[sp].d(T)[sp].[moe]([m5C])p.[moe](A)p.[moe]([m5C])[sp].[moe](G)}$$$$ (last 3' nucleoside missing),3.2
7,RNA1{[moe](G)[sp].[moe](G)p.[moe](G)p.[moe](A)p.[moe](A)p.d([m5C])[sp].d(A)[sp].d([m5C])[sp].d(A)[sp].d([m5C])[sp].d([m5C])[sp].d(A)[sp].d(T)[sp].d(T)[sp].d([m5C])[sp].[moe](A)p.[moe](G)p.[moe]([m5C])[sp].[moe](A)}$$$$ (last 3' nucleoside missing),4.5
8,RNA1{[moe](G)[sp].[moe](G)p.[moe](G)p.[moe](A)p.[moe](G)p.d(G)[sp].d(A)[sp].d(G)[sp].d(T)[sp].d([m5C])[sp].d([m5C])[sp].d([m5C])[sp].d([m5C])[sp].d(A)[sp].d(G)[sp].[moe](A)p.[moe](T)p.[moe](A)[sp].[moe](A)}$$$$ (last 3' nucleoside missing),1.2
9,RNA1{[moe](G)[sp].[moe](G)p.[moe](G)p.[moe](A)p.[moe](T)p.d(A)[sp].d(T)[sp].d(A)[sp].d(T)[sp].d([m5C])[sp].d(A)[sp].d([m5C])[sp].d(T)[sp].d(T)[sp].d(G)[sp].[moe](G)p.[moe](A)p.[moe](G)[sp].[moe]([m5C])}$$$$ (last 3' nucleoside missing),4
10,RNA1{[moe](G)[sp].[moe](G)p.[moe](G)p.[moe](A)p.[moe](T)p.d(T)[sp].d(T)[sp].d(A)[sp].d([m5C])[sp].d([m5C])[sp].d([m5C])[sp].d(A)[sp].d(T)[sp].d(T)[sp].d(G)[sp].[moe]([m5C])p.[moe](A)p.[moe](A)[sp].[moe](G)}$$$$ (last 3' nucleoside missing),1
11,RNA1{[moe](G)[sp].[moe](G)p.[moe](G)p.[moe](T)p.[moe](A)p.d(G)[sp].d(A)[sp].d(A)[sp].d(G)[sp].d(A)[sp].d([m5C])[sp].d(T)[sp].d(A)[sp].d(G)[sp].d([m5C])[sp].[moe](A)p.[moe](T)p.[moe](A)[sp].[moe]([m5C])}$$$$ (last 3' nucleoside missing),5.8
12,RNA1{[moe](G)[sp].[moe](G)p.[moe](G)p.[moe](T)p.[moe](A)p.d(T)[sp].d(T)[sp].d(G)[sp].d([m5C])[sp].d(T)[sp].d(G)[sp].d(T)[sp].d([m5C])[sp].d([m5C])[sp].d(A)[sp].[moe](A)p.[moe](A)p.[moe](T)[sp].[moe](G)}$$$$ (last 3' nucleoside missing),6.8
13,RNA1{[moe](G)[sp].[moe](G)p.[moe](G)p.[moe](T)p.[moe](A)p.d([m5C])[sp].d(T)[sp].d(A)[sp].d(T)[sp].d(G)[sp].d(T)[sp].d(T)[sp].d(G)[sp].d(T)[sp].d([m5C])[sp].[moe](A)p.[moe]([m5C])p.[moe](T)[sp].[moe](G)}$$$$ (last 3' nucleoside missing),6
14,RNA1{[moe](G)[sp].[moe](G)p.[moe](G)p.[moe](T)p.[moe](T)p.d(A)[sp].d([m5C])[sp].d(T)[sp].d(T)[sp].d(T)[sp].d([m5C])[sp].d([m5C])[sp].d(A)[sp].d(A)[sp].d(T)[sp].[moe](A)p.[moe](G)p.[moe](A)[sp].[moe](G)}$$$$ (last 3' nucleoside missing),1.5
15,RNA1{[moe](G)[sp].[moe](G)p.[moe](G)p.[moe](T)p.[moe]([m5C])p.d(G)[sp].d(G)[sp].d(A)[sp].d(T)[sp].d(A)[sp].d(T)[sp].d(A)[sp].d(G)[sp].d([m5C])[sp].d(T)[sp].[moe](T)p.[moe](T)p.[moe](T)[sp].[moe](A)}$$$$ (last 3' nucleoside missing),5
16,RNA1{[moe](G)[sp].[moe](G)p.[moe](G)p.[moe]([m5C])p.[moe](A)p.d(A)[sp].d(A)[sp].d(A)[sp].d(A)[sp].d(T)[sp].d(A)[sp].d(G)[sp].d([m5C])[sp].d(A)[sp].d(A)[sp].[moe]([m5C])p.[moe](A)p.[moe](T)[sp].[moe](A)}$$$$ (last 3' nucleoside missing),5.8
17,RNA1{[moe](G)[sp].[moe](G)p.[moe](G)p.[moe]([m5C])p.[moe](A)p.d(G)[sp].d([m5C])[sp].d(A)[sp].d(A)[sp].d([m5C])[sp].d(A)[sp].d(G)[sp].d([m5C])[sp].d(T)[sp].d([m5C])[sp].[moe](T)p.[moe](T)p.[moe](G)[sp].[moe](A)}$$$$ (last 3' nucleoside missing),7
18,RNA1{[moe](G)[sp].[moe](G)p.[moe](G)p.[moe]([m5C])p.[moe](A)p.d([m5C])[sp].d(A)[sp].d(G)[sp].d(T)[sp].d(A)[sp].d(G)[sp].d(T)[sp].d(G)[sp].d(G)[sp].d(T)[sp].[moe](A)p.[moe](T)p.[moe]([m5C])[sp].[moe](A)}$$$$ (last 3' nucleoside missing),5.2
19,RNA1{[moe](G)[sp].[moe](G)p.[moe](T)p.[moe](A)p.[moe](A)p.d(G)[sp].d(G)[sp].d([m5C])[sp].d(A)[sp].d(G)[sp].d([m5C])[sp].d(T)[sp].d([m5C])[sp].d([m5C])[sp].d(T)[sp].[moe](G)p.[moe](A)p.[moe]([m5C])[sp].[moe](A)}$$$$ (last 3' nucleoside missing),1.3
20,RNA1{[moe](G)[sp].[moe](G)p.[moe](T)p.[moe](A)p.[moe](G)p.d(T)[sp].d([m5C])[sp].d(T)[sp].d(A)[sp].d(T)[sp].d(A)[sp].d(T)[sp].d(T)[sp].d(T)[sp].d(G)[sp].[moe](G)p.[moe](T)p.[moe](A)[sp].[moe](A)}$$$$ (last 3' nucleoside missing),6.2
21,RNA1{[moe](G)[sp].[moe](G)p.[moe](T)p.[moe](A)p.[moe](G)p.d([m5C])[sp].d([m5C])[sp].d([m5C])[sp].d([m5C])[sp].d(A)[sp].d(A)[sp].d(T)[sp].d(A)[sp].d([m5C])[sp].d(A)[sp].[moe](G)p.[moe](A)p.[moe](T)[sp].[moe](T)}$$$$ (last 3' nucleoside missing),1
22,RNA1{[moe](G)[sp].[moe](G)p.[moe](T)p.[moe](A)p.[moe](T)p.d(T)[sp].d(G)[sp].d(A)[sp].d([m5C])[sp].d(A)[sp].d([m5C])[sp].d([m5C])[sp].d(T)[sp].d([m5C])[sp].d([m5C])[sp].[moe](A)p.[moe](A)p.[moe]([m5C])[sp].[moe](T)}$$$$ (last 3' nucleoside missing),5
23,RNA1{[moe](G)[sp].[moe](G)p.[moe](T)p.[moe](T)p.[moe](A)p.d(A)[sp].d(G)[sp].d(T)[sp].d([m5C])[sp].d(T)[sp].d(G)[sp].d([m5C])[sp].d(T)[sp].d([m5C])[sp].d(T)[sp].[moe](T)p.[moe](T)p.[moe]([m5C])[sp].[moe](A)}$$$$ (last 3' nucleoside missing),4
24,RNA1{[moe](G)[sp].[moe](G)p.[moe](T)p.[moe](T)p.[moe](A)p.d(G)[sp].d(G)[sp].d(G)[sp].d([m5C])[sp].d(T)[sp].d(A)[sp].d(T)[sp].d(G)[sp].d(T)[sp].d(T)[sp].[moe](A)p.[moe](T)p.[moe](G)[sp].[moe](T)}$$$$ (last 3' nucleoside missing),6
25,RNA1{[moe](G)[sp].[moe](G)p.[moe](T)p.[moe](T)p.[moe](T)p.d(A)[sp].d(G)[sp].d(G)[sp].d(T)[sp].d([m5C])[sp].d(A)[sp].d(A)[sp].d([m5C])[sp].d([m5C])[sp].d(A)[sp].[moe](A)p.[moe](T)p.[moe](T)[sp].[moe](T)}$$$$ (last 3' nucleoside missing),6
26,RNA1{[moe](G)[sp].[moe](G)p.[moe](T)p.[moe](T)p.[moe](T)p.d(A)[sp].d(G)[sp].d(T)[sp].d(G)[sp].d(T)[sp].d([m5C])[sp].d(A)[sp].d(T)[sp].d(A)[sp].d(T)[sp].[moe](G)p.[moe](T)p.[moe](A)[sp].[moe](G)}$$$$ (last 3' nucleoside missing),5.5
27,RNA1{[moe](G)[sp].[moe](G)p.[moe](T)p.[moe]([m5C])[sp].d(A)[sp].d(T)[sp].d([m5C])[sp].d(T)[sp].d([m5C])[sp].d(G)[sp].d(G)[sp].d(G)[sp].[moe](T)p.[moe](A)p.[moe](T)p.[moe](A)[sp].[moe](T)}$$$$ (last 3' nucleoside missing),6.3
